In patent publication US5221616A, “Prevention of spontaneous complement activation in mammalian biological fluids” (Quidel Corporation, priority 1988, dated 1993):

Molecular target: T1, C3 (Homo sapiens, UniProt P01024)
T1 construct: 250 μL of freshly drawn EDTA-normal human plasma (EDTA-NHP); from tissue; host or cells: normal human blood plasma (EDTA plasma; in A12 also citrate and heparin plasma)
Assay: iC3b fragment EIA: spontaneous C3 activation in EDTA-NHP incubated with increasing concentrations of polyhydroxyl compound in water
Assay type: biochemical
Settings: 22° C. for 48 hr
Method: FIG. 1. […] 250 μL of freshly drawn EDTA-normal human plasma (EDTA-NHP) was mixed with 0 to 250 μL of 4M β-D-glucose dissolved in deionized water. All reaction mixtures were brought up to a final reaction volume of 500 μL using deionized water as the diluent. Each reaction mixture was mixed thoroughly, incubated at 22° C. for 48 hr and assayed for iC3b fragment levels. A non-incubated control (-70° C.) was prepared by mixing 1 part EDTA-NHP with 1 part 4M β-D-glucose dissolved in deionized water. This control reaction mixture was stored at -70° C. until it was assayed in the iC3b fragment EIA along with the incubated experimental samples.
Several different polyhydroxyl compounds were individually dissolved in deionized water to obtain solutions of each compound at a concentration approaching saturation at 22° C. Freshly drawn EDTA-NHP was mixed with increasing concentrations of the polyhydroxyl compound to be tested keeping the final reaction volumes constant. For example, 250 μL of freshly drawn EDTA-NHP was mixed with 0 to 250 μL of the concentrated polyhydroxyl solution to be tested. All reaction mixtures were brought up to a final reaction volume of 500 μL using deionized water as the diluent. Each reaction mixture was mixed thoroughly and incubated at 22° C. for 48 hr. A non-incubated control was prepared for each experiment by mixing 1 part EDTA-NHP with 1 part of the concentrated polyhydroxyl solution to be tested. This control mixture was held at -70° C. until it was thawed out, along with the other experimental samples, and assayed for the occurrence of spontaneous complement activation. For this initial set of experiments, iC3b fragment levels were quantitated in all test samples using the Cytotech monoclonal antibody based EIA procedure. The first analyte selected to be measured was iC3b since, based on previously published data as outlined above, it was anticipated that the C3 protein would be the most susceptible to spontaneous activation upon storage of EDTA-NHP in vitro.
All of the EIA tests employed in these studies utilized solid-phase monoclonal antibody capture assay kit procedures (Cytotech, Inc., San Diego, Calif.). The procedure was basically the same for each EIA kit. Briefly, in the first step of each EIA assay, 100 μL of standards, controls and diluted test specimens were incubated at 22° C., i.e., room temperature, in duplicate polystyrene microtiter wells precoated with a capture monoclonal antibody which specifically reacted with the complement fragment or complex under investigation. During this first incubation period, complement fragments or complexes were bound to the monoclonal antibody coated microassay wells. A wash cycle removed unbound materials.
In the second step, 50 μL of horseradish peroxidase (HRP)-conjugated purified IgG antibody, which reacted with the captured complement fragment or complex analyte, was added to each well and incubated at 22° C. A wash cycle removed unbound conjugate.
In the third step, 100 μL of the HRP enzyme substrate ABTS (0.034% ABTS and 0.0126% H2 O2 in 100 mM sodium citrate buffer, pH 4.0) was added to each well and incubated at 22° C. The bound HRP-conjugatedantibody reacted with the ABTS substrate producing a green color which was proportional to the amount of specimen analyte bound. The HRP-enzymatic reaction was stopped upon addition of 50 μL 250 mM oxalic acid. The substrate color intensity present in each well was measured at 405 nm using an automated EIA microplate reader and the analyte concentration/mL in the original test specimen was determined for each analyte from the appropriate standard curve.
iC3b EIA: The capture mouse monoclonal antibody used to coat microtiter wells for the iC3b fragment EIA was Cytotech MoAb 013III-1.1.6.1 which reacts with a neoantigenic determinant expressed on the iC3b activation fragment of human C3.

T1 sequence (P01024 672-1663 limits assumed): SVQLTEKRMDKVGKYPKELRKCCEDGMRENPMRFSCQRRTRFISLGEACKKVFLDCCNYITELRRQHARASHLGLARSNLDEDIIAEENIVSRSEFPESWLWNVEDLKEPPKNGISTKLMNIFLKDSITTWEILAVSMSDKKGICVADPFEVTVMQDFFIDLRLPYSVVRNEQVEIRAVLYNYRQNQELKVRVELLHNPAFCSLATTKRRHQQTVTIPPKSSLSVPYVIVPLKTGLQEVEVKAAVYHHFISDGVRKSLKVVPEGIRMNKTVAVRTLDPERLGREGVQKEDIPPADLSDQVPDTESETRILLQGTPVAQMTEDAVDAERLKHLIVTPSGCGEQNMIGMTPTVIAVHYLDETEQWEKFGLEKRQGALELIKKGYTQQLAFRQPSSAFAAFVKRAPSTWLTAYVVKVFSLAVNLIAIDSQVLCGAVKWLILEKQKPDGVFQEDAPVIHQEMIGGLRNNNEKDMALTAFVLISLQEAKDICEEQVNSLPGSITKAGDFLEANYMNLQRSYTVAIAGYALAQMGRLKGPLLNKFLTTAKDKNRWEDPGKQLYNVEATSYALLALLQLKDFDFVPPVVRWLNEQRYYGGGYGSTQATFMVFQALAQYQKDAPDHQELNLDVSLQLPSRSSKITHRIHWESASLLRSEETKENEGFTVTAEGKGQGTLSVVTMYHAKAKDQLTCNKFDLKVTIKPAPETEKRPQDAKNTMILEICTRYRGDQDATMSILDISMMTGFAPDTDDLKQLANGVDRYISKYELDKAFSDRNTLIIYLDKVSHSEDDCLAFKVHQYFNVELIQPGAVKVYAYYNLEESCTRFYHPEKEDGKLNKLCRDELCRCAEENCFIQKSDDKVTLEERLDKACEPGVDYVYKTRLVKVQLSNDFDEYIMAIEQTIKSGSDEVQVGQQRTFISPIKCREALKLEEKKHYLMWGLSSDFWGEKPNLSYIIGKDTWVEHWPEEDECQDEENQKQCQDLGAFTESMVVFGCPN
T1 sequence (P01024 23-667 limits assumed): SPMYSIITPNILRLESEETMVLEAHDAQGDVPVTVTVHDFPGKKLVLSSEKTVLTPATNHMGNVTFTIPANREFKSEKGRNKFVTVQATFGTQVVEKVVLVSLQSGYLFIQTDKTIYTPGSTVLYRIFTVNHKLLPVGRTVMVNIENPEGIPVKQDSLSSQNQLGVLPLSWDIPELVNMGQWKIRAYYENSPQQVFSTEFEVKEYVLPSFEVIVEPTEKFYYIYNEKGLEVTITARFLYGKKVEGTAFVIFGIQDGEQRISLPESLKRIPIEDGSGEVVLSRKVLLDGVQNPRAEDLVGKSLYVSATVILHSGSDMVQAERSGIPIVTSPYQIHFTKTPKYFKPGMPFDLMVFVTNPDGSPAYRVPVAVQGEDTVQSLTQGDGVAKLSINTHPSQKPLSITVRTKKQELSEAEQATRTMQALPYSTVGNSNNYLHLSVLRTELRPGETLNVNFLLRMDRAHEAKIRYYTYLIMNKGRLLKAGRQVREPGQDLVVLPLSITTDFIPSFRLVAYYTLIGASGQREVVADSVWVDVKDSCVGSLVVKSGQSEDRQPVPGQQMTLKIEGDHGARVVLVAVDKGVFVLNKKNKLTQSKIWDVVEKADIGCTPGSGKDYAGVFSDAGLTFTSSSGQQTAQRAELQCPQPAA

final concentration that completely prevented spontaneous iC3b fragment production (compared with -70° C. control): ≥ 1.3 M
spontaneous iC3b fragment production (increasing final concentrations of compound (galactose up to 2M)): inhibited with increasing concentrations
SMILES: OC[C@H]1O[C@@H](O)[C@H](O)[C@@H](O)[C@@H]1O [β-D-glucose]
